In patent publication EP0223890B1, “Aryl derivatives of pyrrole, their obtention and their use in immunology” (Albert ROLLAND S.A. Société dite, priority 1985, dated 1987):

How the values were obtained:
[1] = tested on: cellules spléniques de souris C57BL/6J; experiment: rosette test in vitro (sheep red blood cells with mouse spleen cells); format: cell-based; settings: for activité inhibitrice sur la formation des rosettes (comparison in words): compared with acide N-méthyl-4-(naphtoyl-1)-pyrrolyl-2-carboxylique; for activité immuno-stimulante (stimulation de la formation des rosettes): result in words
Source text: A) Activité des composés selon l'invention sur le test des rosettes in vitro
L'étude a été réalisée sur globules rouges de mouton avec des cellules spléniques de souris C57BL/6J.

[2] = tested on: transformation lymphoblastique; experiment: lymphoblastic transformation test; format: cell-based; settings: low concentration; vis-à-vis de la Concanavaline A and LPS (Lipopolysaccharides de E. Coli)
Protocol: B) Activité des composés selon l'invention sur le test de transformation lymphoblastique
Sur le test de transformation lymphoblastique, les composés selon l'invention montrent une activité antimitotique, aux doses allant de 5 à 50 µg/ml. […] La mise en évidence d'une activité immuno-stimulante pour certains de ces composés permet d'envisager une autre application thérapeutique.

Cn1cc(C(=O)c2cc([S+](C)[O-])cc3ccccc23)cc1C(=O)O (centres unmarked) [Acide N-méthyl-4-(3-méthylsulfinylnaphtoyl-1)-pyrrolyl-2-carboxylique]
activité inhibitrice sur la formation des rosettes (comparison in words) [1]: activité comparable à celle de l'acide N-méthyl-4-(naphtoyl-1 )-pyrrolyl-2-carboxylique | activité stimulante à faible concentration [2]: activité stimulante

Cn1cc(C(=O)c2cccc3c(O)cccc23)cc1C(=O)O [dérivé N-méthyl-5-hydroxylé, Acide N-méthyl-4-(5-hydroxy-naphtoyl-1)-pyrrolyl-2-carboxylique]
activité inhibitrice sur la formation des rosettes (comparison in words) [1]: inhibiteur à un degré identique | activité immuno-stimulante (stimulation de la formation des rosettes) [1]: activité immuno-stimulante à faible concentration

O=C(O)c1cc(C(=O)c2cccc3ccccc23)c[nH]1 [acide 4-(naphtoyl-1)pyrrolyl-2-carboxylique]
activité inhibitrice sur la formation des rosettes (comparison in words) [1]: activité inhibitrice du même ordre que celle du dérivé N-méthylé | activité stimulante à faible concentration [2]: activité stimulante

Cn1cc(C(=O)c2cccc3c2C=CC(O)C3O)cc1C(=O)O (centres unmarked) [acide N-méthyl-4-(5,6-dihydroxy-5,6-dihydronaphtoyl-1)-pyrrolyl-2-carboxylique]
activité inhibitrice sur la formation des rosettes (comparison in words) [1]: activité comparable à celle de l'acide N-méthyl-4-(naphtoyl-1 )-pyrrolyl-2-carboxylique

Cn1cc(C(=O)c2cc(O)cc3ccccc23)cc1C(=O)O [dérivé N-méthyl-(3-hydroxy-naphtoyl-1), Acide N-méthyl-4-(3-hydroxy-naphtoyl-1)-pyrrolyl-2-carboxylique]
activité immuno-stimulante (stimulation de la formation des rosettes) [1]: stimuler la formation des rosettes
